Reference: patent US20260240801A1, “COMPOSITIONS FOR TREATING PARKINSON’S DISEASE AND QUALITATIVE ASSESSMENT THEREOF” (InTrance Medical Systems Inc., priority 2023, published 2026)

Key:
[1] = Stability study of Compound 1 (E920) on storage: purity by HPLC; format: physicochemical
Method: (§1) Compound 1 purity was determined by HPLC at two wavelengths 220 nm and 280 nm. Identification of Compound 1 was carried out by IR and NMR methods (^1H NMR, ^13C NMR). The residual solvents methanol and dichloromethane (DCM) were determined by gas chromatography (GC). Residual water content was determined by Karl Fisher analysis. Thermogravimetric analysis (TGA) of Compound 1 was also carried out with hold time of 10 minutes at final temperature of 105° C.
• Detector: UV/Vis or Diode Array Detector • Wavelength: Signal A: 280 nm, Bandwidth: 4 nm, Reference: OFF • Signal B: 220 nm, Bandwidth: 4 nm, Reference: OFF • Column: SunFire C18 Column (150×4.6 mm, 3.5 um) • Mobile Phase A: 0.06% TFA in H2O • Mobile Phase B: 0.04% TFA in (MeOH:H2O, 80:20)
• Autosampler Temperature: 6° C. • Column Temperature: 40° C. • Flow Rate: 1.0 mL/min • Injection Volume: 5 μL • Run Time: 30 min
• Accurately weigh approximately 10.0 mg of test sample into a 20 mL volumetric flask. • Dilute to volume with diluent and mix well. (0.5 mg/mL).
• Integrate all peaks≥0.05% a/a, not present in the blank solution. • ECA—Analytical Method—E920H2—for standard qualification
(§2) The stability profile of Compound 1 (Eurofins CDMO Alphora Inc. code: E920) was being evaluated over a period of 6 months under Long Term storage condition of <−20° C. and 6 months under accelerated condition of 25±2° C./60%±5% RH; and at intermediate storage conditions of 5±3° C. Additional samples are stored at each storage conditions to cover the stability studies up to 12 months, after 6 months satisfactory stability results. Attributes being tested include: description of composition, purity by HPLC, identification by HPLC and water content by Karl Fischer (KF) Method. This study is conducted in compliance with ICH Q1A (R2) and Alphora Standard Operating Procedure SOP LC027.
(§3) The stability profile of Compound 1 (Eurofins CDMO Alphora Inc. code: E920) was being evaluated over a period of up to 12 months under Long Term storage condition of <−20° C. and up to 12 months under accelerated condition of 25±2° C./60%±5% RH; and store only at intermediate storage conditions of 5±3° C. Attributes being tested include: description of composition, purity by HPLC, identification by HPLC and water content by Karl Fischer (KF) Method. This study is conducted in compliance with ICH Q1A (R2) and Alphora Standard Operating Procedure SOP LC027.

[2] = Stability study of Compound 1 (E920) on storage: water content by Karl Fischer; format: physicochemical
Method: as §1, §2, §3

With C[C@@](Cc1ccc(O)c(O)c1)(N/N=C/c1cc(O)c(O)c([N+](=O)[O-])c1)C(=O)O [Compound 1, (2s)-2-[(E)-2-[(3,4-dihydroxy-5-nitrophenyl)methylidene]hydrazin-1-yl]-3-(3,4-dihydroxyphenyl)-2-methylpropanoic acid] as the molecule, how does the “% Purity at 220 nm by HPLC” value ([1]; 25° C./60% RH, 1 M) read?
The value was 95.7%.

And the “% Purity at 280 nm by HPLC” value ([1]; 25° C./60% RH, 1 M)?
The value was 96.2%.

What about the “% a/a Purity at 220 nm by HPLC” value ([1]; 25° C./60% RH, 1 M) of the same molecule?
Its value is 95.7 % a/a.

What about the “% a/a Purity at 280 nm by HPLC” value ([1]; 25° C./60% RH, 1 M) of the same molecule?
The value was 96.2 % a/a.

What about the “% Purity at 220 nm by HPLC” value ([1]; 25° C./60% RH, 3 M) of the same molecule?
The value was 93.9%.

What about the “% Purity at 280 nm by HPLC” value ([1]; 25° C./60% RH, 3 M) of the same molecule?
Its value is 94.9%.

And the “% a/a Purity at 220 nm by HPLC” value ([1]; 25° C./60% RH, 3 M)?
The value was 93.9 % a/a.

And the “% a/a Purity at 280 nm by HPLC” value ([1]; 25° C./60% RH, 3 M)?
Its value is 94.9 % a/a.

And the “% a/a Purity at 220 nm by HPLC” value ([1]; 25° C./60% RH, 6 M)?
The value was 94.8 % a/a.

What about the “% a/a Purity at 280 nm by HPLC” value ([1]; 25° C./60% RH, 6 M) of the same molecule?
Its value is 95.3 % a/a.

What about the “% a/a Purity at 220 nm by HPLC” value ([1]; 25° C./60% RH, 12 M) of the same molecule?
Its value is 93.2 % a/a.

What about the “% a/a Purity at 280 nm by HPLC” value ([1]; 25° C./60% RH, 12 M) of the same molecule?
Its value is 95.1 % a/a.

And the “% Purity at 220 nm by HPLC” value ([1]; Initial)?
Its value is 95.4%.

And the “% Purity at 280 nm by HPLC” value ([1]; Initial)?
Its value is 96.1%.

And the “% a/a Purity at 220 nm by HPLC” value ([1]; Initial (12-month study))?
The value was 95.4 % a/a.

What about the “% a/a Purity at 280 nm by HPLC” value ([1]; Initial (12-month study)) of the same molecule?
Its value is 96.1 % a/a.

And the Three-month stability ([1]; −20° C. and 25° C./60% RH)?
The Three-month stability was “satisfactory”.

And the Twelve-month stability ([1]; −20° C. and 25° C./60% RH)?
The Twelve-month stability was “satisfactory”.

What about the “% Purity at 220 nm by HPLC” value ([1]; −20° C., 1 M) of the same molecule?
Its value is 95.8%.

What about the “% Purity at 280 nm by HPLC” value ([1]; −20° C., 1 M) of the same molecule?
The value was 96.0%.

And the “% a/a Purity at 220 nm by HPLC” value ([1]; −20° C., 1 M)?
The value was 95.8 % a/a.

And the “% a/a Purity at 280 nm by HPLC” value ([1]; −20° C., 1 M)?
The value was 96.0 % a/a.

What about the “% Purity at 220 nm by HPLC” value ([1]; −20° C., 3 M) of the same molecule?
The value was 94.3%.

And the “% Purity at 280 nm by HPLC” value ([1]; −20° C., 3 M)?
The value was 95.2%.

And the “% a/a Purity at 220 nm by HPLC” value ([1]; −20° C., 3 M)?
Its value is 94.3 % a/a.

And the “% a/a Purity at 280 nm by HPLC” value ([1]; −20° C., 3 M)?
Its value is 95.2 % a/a.

What about the “% a/a Purity at 220 nm by HPLC” value ([1]; −20° C., 6 M) of the same molecule?
The value was 96.5% a/a.

And the “% a/a Purity at 280 nm by HPLC” value ([1]; −20° C., 6 M)?
Its value is 96.1 % a/a.

And the “% a/a Purity at 220 nm by HPLC” value ([1]; −20° C., 12 M)?
The value was 95.9 % a/a.

And the “% a/a Purity at 280 nm by HPLC” value ([1]; −20° C., 12 M)?
The value was 96.6 % a/a.

What about the “% residual water content by KF” value ([2]; 25° C./60% RH, 1 M) of the same molecule?
The value was 1.63%.

And the “% residual water content by KF” value ([2]; 25° C./60% RH, 1 M (12-month study))?
The value was 1.63%.

And the “% residual water content by KF” value ([2]; 25° C./60% RH, 3 M)?
Its value is 2.05%.

What about the “% residual water content by KF” value ([2]; 25° C./60% RH, 3 M (12-month study)) of the same molecule?
Its value is 2.05%.

What about the “% residual water content by KF” value ([2]; 25° C./60% RH, 6 M) of the same molecule?
Its value is 3.55%.

And the “% residual water content by KF” value ([2]; 25° C./60% RH, 12 M)?
Its value is 4.02%.

What about the “% residual water content by KF” value ([2]; Initial) of the same molecule?
Its value is 1.51%.

And the “% residual water content by KF” value ([2]; Initial (12-month study))?
The value was 1.51%.

And the “% residual water content by KF” value ([2]; −20° C., 1 M)?
The value was 1.67%.

And the “% residual water content by KF” value ([2]; −20° C., 1 M (12-month study))?
The value was 1.67%.

What about the “% residual water content by KF” value ([2]; −20° C., 3 M) of the same molecule?
Its value is 1.96%.

What about the “% residual water content by KF” value ([2]; −20° C., 3 M (12-month study)) of the same molecule?
Its value is 1.96%.

And the “% residual water content by KF” value ([2]; −20° C., 6 M)?
Its value is 3.35%.

And the “% residual water content by KF” value ([2]; −20° C., 12 M)?
Its value is 4.08%.
